Reference: PMC9516563 (JACS Au, 2022)

Columns and labels:
SARS-CoV-2 virions = tested on: SARS-CoV-2 virions; set-up: species or system SARS-CoV-2 isolate BetaCoV/France/IDF0372/2020
IAV = format: cell-based, Influenza strain A/PR/8/34 (H1N1; PR8); settings: read-out: IAV IC50
[1] = Liposome dye leakage assay; settings: read-out: liposome EC50 (dye leakage); 200 nm liposomes filled with 50 mM carboxyfluorescein, 30 min incubation
SARS-CoV-2 = format: cell-based, SARS-CoV-2 isolate BetaCoV/France/IDF0372/2020
[2] = tested on: SARS-CoV-2 spike pseudoparticles; format: cell-based; settings: read-out: IC50 against SARS-CoV-2 spike-mediated transduction

For O=C(O)COc1c2c(c(OCC(=O)O)c3c1C1CC3c3cc4c(cc31)C1CC4c3ccccc31)C1CC2c2cc3c(cc21)C1CC3c2ccccc21 [CLR05], the “morphology of treated SARS-CoV-2 virions (TEM)” value (SARS-CoV-2 virions) was “largely disrupted”, the IC50 (IAV) was 70.3 µM and the EC50 [1] was 121 µM. For the same compound, the “inhibition of virus infection” value (SARS-CoV-2) was ~70%, the IC50 (SARS-CoV-2; read-out: SARS-CoV-2 IC50) was 167 µM and the IC50 [2] was 33 µM.
